In ChEMBL document CHEMBL1141304, “Julichrome Q6 glucuronide, a monomeric subunit of the julimycin B-I complex from a terrestrial Streptomyces sp” (J Nat Prod, 2007):
Calls of active or inactive are those of the source.

Tests used:
Format in all cases: functional, organism-based
[1] = tested on: Escherichia coli; test: Antimicrobial activity against Escherichia coli at 40 ug after 24 hrs by agar diffusion method
[2] = tested on: Staphylococcus aureus; test: Antimicrobial activity against Staphylococcus aureus at 40 ug after 24 hrs by agar diffusion method
[3] = tested on: Streptomyces viridochromogenes; test: Antimicrobial activity against Streptomyces viridochromogenes at 40 ug after 24 hrs by agar diffusion method
[4] = tested on: Bacillus subtilis; test: Antimicrobial activity against Bacillus subtilis at 40 ug after 24 hrs by agar diffusion method
[5] = tested on: Candida albicans; test: Antimicrobial activity against Candida albicans at 40 ug after 24 hrs by agar diffusion method
[6] = tested on: Chlorella vulgaris; test: Antimicrobial activity against Chlorella vulgaris at 40 ug after 24 hrs by agar diffusion method
[7] = tested on: Chlorella sorokiniana; test: Antimicrobial activity against Chlorella sorokiniana at 40 ug after 24 hrs by agar diffusion method
[8] = tested on: Desmodesmus subspicatus; test: Antimicrobial activity against Scenedesmus subspicatus at 40 ug after 24 hrs by agar diffusion method

Measured: Activity

CC(=O)O[C@H](C)[C@@H]1c2cc3cccc(O[C@@H]4O[C@H](C(=O)O)[C@@H](O)[C@H](O)[C@H]4O)c3c(O)c2C(=O)C[C@]1(C)O
inactive: [1] | [2] | [3] | [4] | [5] | [6] | [7] | [8]
